The values that follow come from ChEMBL document CHEMBL4145588, “2,7-Diazaspiro[4,4]nonanes for the Treatment or Prevention of Cancers and Diabetes” (ACS Med Chem Lett, 2018).

This assay has as its target T1, Menin (Homo sapiens, UniProt O00255).
T1 sequence (O00255 whole entry): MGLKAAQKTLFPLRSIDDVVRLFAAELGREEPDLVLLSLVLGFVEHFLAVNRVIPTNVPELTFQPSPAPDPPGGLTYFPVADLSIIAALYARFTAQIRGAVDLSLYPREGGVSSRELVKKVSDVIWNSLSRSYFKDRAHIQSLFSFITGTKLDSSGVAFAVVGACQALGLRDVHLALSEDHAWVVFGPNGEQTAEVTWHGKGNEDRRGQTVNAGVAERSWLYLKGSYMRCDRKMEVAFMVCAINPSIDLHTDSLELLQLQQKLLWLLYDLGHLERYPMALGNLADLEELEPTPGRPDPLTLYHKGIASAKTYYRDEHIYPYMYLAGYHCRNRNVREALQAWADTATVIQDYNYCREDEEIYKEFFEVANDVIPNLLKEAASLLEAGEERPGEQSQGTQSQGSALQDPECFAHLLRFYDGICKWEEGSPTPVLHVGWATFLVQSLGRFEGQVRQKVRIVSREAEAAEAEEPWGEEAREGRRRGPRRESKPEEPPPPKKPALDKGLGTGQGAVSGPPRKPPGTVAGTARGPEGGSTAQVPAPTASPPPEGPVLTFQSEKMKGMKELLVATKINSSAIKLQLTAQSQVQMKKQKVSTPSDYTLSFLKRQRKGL
The experiment in a line: Inhibition of biotinylated MLL-1 derived biotinylated Btn-PEG2- PEG2-S-Nva-RWRFPARPGTT-Amide binding to recombinant full length N-terminal His-tagged menin (unknown origin) expressed in Escherichia coli incubated for 10 mins by TR-FRET assay. (In general: In TR-FRET formats the signal depends on donor and acceptor labels being close together.)

For the compound `N#CCc1ccc(CN2CCC3(CCN(c4ncnc5sc(CC(F)(F)F)cc45)C3)C2)cc1` (centres undefined), the IC50 is 20 nM. Take `NS(=O)(=O)Cc1ccc(CN2CCC3(CCN(c4ncnc5cc(CC(F)(F)F)sc45)C3)C2)cc1` (centres undefined): the IC50 worked out at 10 nM. As to `CC(C)(C#N)c1ccc(CN2CCC3(CCN(c4ncnc5sc(CC(F)(F)F)cc45)C3)C2)cc1` (centres undefined), the IC50 turned out to be 20 nM. As to `C=CC(=O)Nc1ccc(CN2CCC3(CCN(c4ncnc5sc(CC(F)(F)F)cc45)C3)C2)cc1` (centres undefined), the half-inhibitory concentration (IC50) turned out to be 10 nM. The result for `O=S(=O)(Cc1ccc(CN2CCC3(CCN(c4ncnc5sc(CC(F)(F)F)cc45)C3)C2)cc1)NCCO` (centres undefined) reads 10 nM; that for `CC(c1ccc(CN2CCC3(CCN(c4ncnc5sc(CC(F)(F)F)cc45)C3)C2)cc1)S(N)(=O)=O` (centres undefined), 10 nM; that for `CN(CCO)c1ccc(CN2CCC3(CCN(c4ncnc5sc(CC(F)(F)F)cc45)C3)C2)cc1` (centres undefined), 10 nM.

Regarding `FC(F)Cc1cc2c(N3CCC4(CCN(Cc5ccc(N6CCOCC6)cc5)C4)C3)ncnc2s1` (centres undefined), the IC50 came out at 10 nM. For the compound `NS(=O)(=O)Cc1ccc(CN2CCC3(CCN(c4ncnc5sc(CC(F)(F)F)cc45)C3)C2)cc1` (centres undefined), the IC50 came out at 4 nM.

What is called IC50 is the concentration that inhibits the measured activity by half.
